Laboratory results as given in US20250255966A1, “CORN PHYTOGLYCOGEN FORMULATIONS FOR STABILIZING PROTEINS” (UNIVERSITY OF FLORIDA RESEARCH FOUNDATION, INCORPORATED, priority 2022, published 2025).

System: GFP
Assay: GFP preservation, comparison with common excipients
Format: biochemical
Details: after 10 cycles of lyophilization, excipient 20 mg/mL, 4 μM GFP
Method: As a model protein, 4 μM GFP was used. Each excipient was prepared at a concentration of 20 mg/mL as described above. Each excipient was mixed with GFP at a 1:1 (v/v) ratio. PBS without excipient was used as a control group. Samples were lyophilized, activity was measured, and relative activity was calculated using the same methods as above.

Molecule | GFP stabilizing activity vs BSA | effectiveness as GFP/protein stabilizer
OC[C@H]1O[C@@](CO)(O[C@H]2O[C@H](CO)[C@@H](O)[C@H](O)[C@H]2O)[C@@H](O)[C@@H]1O [sucrose] | comparable | 
OC[C@H]1O[C@H](O[C@H]2O[C@H](CO)[C@@H](O)[C@H](O)[C@H]2O)[C@H](O)[C@@H](O)[C@@H]1O [trehalose] | comparable | 
polyethylene glycol [PEG] |  | not an effective GFP stabilizer
